Reference: PubChem BioAssay (NCI)
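These data come from cells grown in 96-well plates and exposed to compound for 48 hours at five concentrations. The concentration for full growth arrest is given as TGI.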

Assays:
Test in all cases: NCI tumour cell line growth inhibition, 48 h
[1] = test system: SF-268 CNS
[2] = test system: HOP-18 NSCLC
[3] = test system: HCT-116 colon
[4] = test system: MOLT-4 leukemia
[5] = test system: SK-MEL-5 melanoma
[6] = test system: NCI-H23 lung
[7] = test system: P388 leukemia
[8] = test system: OVCAR-8 ovarian
[9] = test system: KM12 colon
[10] = test system: OVCAR-4 ovarian
[11] = test system: COLO 205 colon
[12] = test system: SN12C renal
[13] = test system: IGROV1 ovarian
[14] = test system: NCI-H226 lung
[15] = test system: SW-620 colon
[16] = test system: SN12K1 renal
[17] = test system: RPMI-8226 leukemia
[18] = test system: OVCAR-3 ovarian
[19] = test system: HCC-2998 colon
[20] = test system: K-562 leukemia
[21] = test system: HOP-92 NSCLC
[22] = test system: MALME-3M melanoma
[23] = test system: HL-60(TB) leukemia
[24] = test system: SNB-78 CNS
[25] = test system: SK-OV-3 ovarian
[26] = test system: P388/ADR leukemia
[27] = test system: U251 CNS
[28] = test system: A498 renal
[29] = test system: NCI-H460 lung
[30] = test system: UACC-62 melanoma
[31] = test system: HCT-15 colon
[32] = test system: KM20L2 colon
[33] = test system: DMS 273 small cell lung
[34] = test system: NCI/ADR-RES ovarian
[35] = test system: SNB-75 CNS
[36] = test system: DLD-1 colon
[37] = test system: HOP-62 NSCLC
[38] = test system: SNB-19 CNS
[39] = test system: DMS 114 small cell lung
[40] = test system: UO-31 renal
[41] = test system: CAKI-1 renal
[42] = test system: MCF7 breast
[43] = test system: CCRF-CEM leukemia
[44] = test system: SF-295 CNS
[45] = test system: EKVX NSCLC
[46] = test system: A549 NSCLC
[47] = test system: SK-MEL-28 melanoma
[48] = test system: NCI-H522 lung
[49] = test system: SF-539 CNS
[50] = test system: RXF 393 renal
[51] = test system: LOX IMVI melanoma
[52] = test system: M19-MEL melanoma
[53] = test system: SK-MEL-2 melanoma
[54] = test system: HT29 colon
[55] = test system: OVCAR-5 ovarian
[56] = test system: UACC-257 melanoma

SMILES: S=c1sc2c(s1)SC(c1ccccc1)CS2 (stereo unspecified)
- TGI [1]: > 100 µM
- TGI [2]: > 100 µM
- TGI [3]: > 100 µM
- TGI [4]: > 100 µM
- TGI [5]: > 100 µM
- TGI [6]: > 100 µM
- TGI [7]: > 100 µM
- TGI [8]: > 100 µM
- TGI [9]: > 100 µM
- TGI [10]: > 88.2 µM
- TGI [11]: > 100 µM
- TGI [12]: > 100 µM
- TGI [13]: > 100 µM
- TGI [14]: > 100 µM
- TGI [15]: > 100 µM
- TGI [16]: > 100 µM
- TGI [17]: > 100 µM
- TGI [18]: > 100 µM
- TGI [19]: > 100 µM
- TGI [20]: > 100 µM
- TGI [21]: > 100 µM
- TGI [22]: > 100 µM
- TGI [23]: > 100 µM
- TGI [24]: > 100 µM
- TGI [25]: > 100 µM
- TGI [26]: > 100 µM
- TGI [27]: > 100 µM
- TGI [28]: > 100 µM
- TGI [29]: > 100 µM
- TGI [30]: > 100 µM
- TGI [31]: > 100 µM
- TGI [32]: > 100 µM
- TGI [33]: > 100 µM
- TGI [34]: > 100 µM
- TGI [35]: > 94.2 µM
- TGI [36]: > 100 µM
- TGI [37]: > 100 µM
- TGI [38]: > 100 µM
- TGI [39]: > 100 µM
- TGI [40]: > 100 µM
- TGI [41]: > 100 µM
- TGI [42]: > 100 µM
- TGI [43]: > 100 µM
- TGI [44]: > 100 µM
- TGI [45]: > 100 µM
- TGI [46]: > 100 µM
- TGI [47]: > 100 µM
- TGI [48]: > 100 µM
- TGI [49]: > 100 µM
- TGI [50]: 91.5 µM
- TGI [51]: > 100 µM
- TGI [52]: > 100 µM
- TGI [53]: > 100 µM
- TGI [54]: > 100 µM
- TGI [55]: > 100 µM
- TGI [56]: > 100 µM
